This note sets out measurements from ChEMBL document CHEMBL3603789, “N-Lipidated Peptide Dimers: Effective Antibacterial Agents against Gram-Negative Pathogens through Lipopolysaccharide Permeabilization” (J Med Chem, 2015).

Molecules are shown by their SMILES. Values after ≈ are worked out from the molar mass of the structure shown. Peptide text beside a SMILES is read from it. * marks the point of attachment. Myristoyl = CCCCCCCCCCCCCC(=O)*; Lauroyl = CCCCCCCCCCCC(=O)*; Decanoyl = CCCCCCCCCC(=O)*; Hexanoyl = CCCCCC(=O)*; Butyryl = CCCC(=O)*

Usually MIC stands for the lowest concentration found to suppress growth. As a reminder, the EC50 is the concentration giving half of the maximal effect.

Data set [1] is described as follows: Toxicity in New Zealand white rabbit erythrocytes assessed as hemolytic activity after 60 mins. Format: cell-based, Oryctolagus cuniculus. Particulars: erythrocyte, 1 h.
A further data set has as its system Klebsiella pneumoniae. The data set can be described thus: Antibacterial activity against Klebsiella pneumoniae DM4299 after 24 hrs by broth microdilution method. The data set is classed as functional. The conditions noted are these: DM4299, 24 h. In general terms: Broth dilution looks for growth in wells or tubes with falling amounts of substance.
In a further data set the test system is Pseudomonas aeruginosa. Put plainly: Antibacterial activity against Pseudomonas aeruginosa DM23155 after 24 hrs by broth microdilution method. Particulars: DM23155, 24 h. The data set is classed as functional.
Another data set concerns Escherichia coli. The data set can be described thus: Antibacterial activity against Escherichia coli ATCC 25922 after 24 hrs by broth microdilution method. The data set is classed as functional. Particulars: ATCC 25922, 24 h.
Data set [2] deals with Lipopolysaccharide (LPS). The data set can be described thus: Displacement of dansylcadaverine from Escherichia coli 0111:B4 LPS at 15 to 30 uM after 5 mins by high-throughput fluorescence displacement assay.
Data set [3] deals with Lipopolysaccharide (LPS). The data set can be described thus: Induction of Escherichia coli 0111:B4 LPS neutralization using p-nitroaniline assessed as concentration required to neutralize 50% after 1 hr by limulus amebocyte lysate assay.

`CCCCCCCCCCCCCC(=O)N[C@@H](CCCNC(=N)N)C(=O)NCC(=O)N[C@@H](CCCNC(=N)N)C(=O)N[C@@H](CCCCN)C(=O)N[C@H](C(=O)N[C@H](C(=O)N[C@@H](CCCNC(=N)N)C(=O)N[C@@H](CCCNC(=N)N)C(=O)N[C@@H](CCCCN)C(=O)N[C@@H](CCCCN)C(=O)O)C(C)C)C(C)C` (Myristoyl-RGRKVVRRKK-OH): in data set [1], the HC10 amounted to 8897 µg/mL. Moreover, the MIC against Klebsiella pneumoniae is 6 µM (≈ 8.96 µg/mL); against Pseudomonas aeruginosa, 10 µM (≈ 14.9 µg/mL); with Escherichia coli, 6 µM (≈ 8.96 µg/mL).

Take `CCCCCC(=O)N[C@@H](CCCNC(=N)N)C(=O)NCC(=O)N[C@@H](CCCNC(=N)N)C(=O)N[C@@H](CCCCN)C(=O)N[C@H](C(=O)N[C@H](C(=O)N[C@@H](CCCNC(=N)N)C(=O)N[C@@H](CCCNC(=N)N)C(=O)N[C@@H](CCCCN)C(=O)N[C@@H](CCCCN)C(=O)O)C(C)C)C(C)C` (Hexanoyl-RGRKVVRRKK-OH): the HC10 in data set [1] was over 10000 µg/mL. For the same molecule, the MIC in the data set on Klebsiella pneumoniae is 80 µM (≈ 110 µg/mL); in the data set with Pseudomonas aeruginosa it was 80 µM (≈ 110 µg/mL); in the data set with Escherichia coli, 10 µM (≈ 13.8 µg/mL).

As to `CCCCCCCCCCCCCC(=O)N[C@@H](CCCNC(=N)N)C(=O)NCC(=O)N[C@@H](CCCNC(=N)N)C(=O)N[C@@H](CCCCN)C(=O)NCC(=O)NCC(=O)N[C@@H](CCCNC(=N)N)C(=O)N[C@@H](CCCNC(=N)N)C(=O)N[C@@H](CCCCN)C(=O)N[C@@H](CCCCN)C(=O)O` (Myristoyl-RGRKGGRRKK-OH), the HC10 in data set [1] was determined as 6670 µg/mL. Further, the minimum inhibitory concentration (MIC) against Klebsiella pneumoniae is 10 µM (≈ 14.1 µg/mL); with Pseudomonas aeruginosa, 6 µM (≈ 8.45 µg/mL); in the data set with Escherichia coli, 6 µM (≈ 8.45 µg/mL).

With `CC(=O)N[C@@H](CCCNC(=N)N)C(=O)NCC(=O)N[C@@H](CCCNC(=N)N)C(=O)N[C@@H](CCCCN)C(=O)N[C@H](C(=O)N[C@H](C(=O)N[C@@H](CCCNC(=N)N)C(=O)N[C@@H](CCCNC(=N)N)C(=O)N[C@@H](CCCCN)C(=O)N[C@@H](CCCCN)C(=O)O)C(C)C)C(C)C` (Ac-RGRKVVRRKK-OH), the HC10 in data set [1] is over 10000 µg/mL. For the same molecule, the minimal inhibitory concentration (MIC) against Klebsiella pneumoniae is over 80 µM; in the data set with Pseudomonas aeruginosa, over 80 µM; against Escherichia coli, 40 µM (≈ 53 µg/mL).

Regarding `N=C(N)NCCC[C@H](NC(=O)CNC(=O)[C@@H](N)CCCNC(=N)N)C(=O)N[C@@H](CCCCN)C(=O)NCC(=O)NCC(=O)N[C@@H](CCCNC(=N)N)C(=O)N[C@@H](CCCNC(=N)N)C(=O)N[C@@H](CCCCN)C(=O)N[C@@H](CCCCN)C(=O)O` (H-RGRKGGRRKK-OH), in data set [1], the HC10 is over 10000 µg/mL. In addition, the minimal inhibitory concentration (MIC) was over 80 µM in the data set with Klebsiella pneumoniae, over 80 µM against Pseudomonas aeruginosa and 20 µM (≈ 24 µg/mL) against Escherichia coli.

Take `CCCCCCCCCC(=O)N[C@@H](CCCNC(=N)N)C(=O)NCC(=O)N[C@@H](CCCNC(=N)N)C(=O)N[C@@H](CCCCN)C(=O)NCC(=O)NCC(=O)N[C@@H](CCCNC(=N)N)C(=O)N[C@@H](CCCNC(=N)N)C(=O)N[C@@H](CCCCN)C(=O)N[C@@H](CCCCN)C(=O)O` (Decanoyl-RGRKGGRRKK-OH): in data set [1], the HC10 was over 10000 µg/mL. The minimum inhibitory concentration (MIC) came to 20 µM (≈ 27.1 µg/mL) in the data set on Klebsiella pneumoniae, 10 µM (≈ 13.5 µg/mL) with Pseudomonas aeruginosa and 10 µM (≈ 13.5 µg/mL) against Escherichia coli.

In the case of `CCCCCCCCCC(=O)N[C@@H](CCCNC(=N)N)C(=O)NCC(=O)N[C@@H](CCCNC(=N)N)C(=O)N[C@@H](CCCCN)C(=O)N[C@H](C(=O)N[C@H](C(=O)N[C@@H](CCCNC(=N)N)C(=O)N[C@@H](CCCNC(=N)N)C(=O)N[C@@H](CCCCN)C(=O)N[C@@H](CCCCN)C(=O)O)C(C)C)C(C)C` (Decanoyl-RGRKVVRRKK-OH), the HC10 in data set [1] was over 10000 µg/mL. In addition, the MIC against Klebsiella pneumoniae amounted to 80 µM (≈ 115 µg/mL); in the data set on Pseudomonas aeruginosa, 20 µM (≈ 28.7 µg/mL); in the data set with Escherichia coli, 6 µM (≈ 8.62 µg/mL). Further, the Activity with Lipopolysaccharide (LPS) [2] turned out to be 78%. Moreover, the EC50 in the data set on Lipopolysaccharide (LPS) [3] came out at 566 µM.

As for `CCCC(=O)N[C@@H](CCCNC(=N)N)C(=O)NCC(=O)N[C@@H](CCCNC(=N)N)C(=O)N[C@@H](CCCCN)C(=O)NCC(=O)NCC(=O)N[C@@H](CCCNC(=N)N)C(=O)N[C@@H](CCCNC(=N)N)C(=O)N[C@@H](CCCCN)C(=O)N[C@@H](CCCCN)C(=O)O` (Butyryl-RGRKGGRRKK-OH), the HC10 in data set [1] was over 10000 µg/mL. In addition, the minimal inhibitory concentration (MIC) in the data set with Klebsiella pneumoniae worked out at 80 µM (≈ 101 µg/mL); against Pseudomonas aeruginosa it was 80 µM (≈ 101 µg/mL); against Escherichia coli, 40 µM (≈ 50.7 µg/mL).

Turning to `CCCCCCCCCCCC(=O)N[C@@H](CCCNC(=N)N)C(=O)NCC(=O)N[C@@H](CCCNC(=N)N)C(=O)N[C@@H](CCCCN)C(=O)NCC(=O)NCC(=O)N[C@@H](CCCNC(=N)N)C(=O)N[C@@H](CCCNC(=N)N)C(=O)N[C@@H](CCCCN)C(=O)N[C@@H](CCCCN)C(=O)O` (Lauroyl-RGRKGGRRKK-OH), the HC10 in data set [1] amounted to 8602 µg/mL. Besides, the MIC against Klebsiella pneumoniae worked out at 10 µM (≈ 13.8 µg/mL); with Pseudomonas aeruginosa, 6 µM (≈ 8.28 µg/mL); against Escherichia coli, 6 µM (≈ 8.28 µg/mL).

As to `CCCCCC(=O)N[C@@H](CCCNC(=N)N)C(=O)NCC(=O)N[C@@H](CCCNC(=N)N)C(=O)N[C@@H](CCCCN)C(=O)NCC(=O)NCC(=O)N[C@@H](CCCNC(=N)N)C(=O)N[C@@H](CCCNC(=N)N)C(=O)N[C@@H](CCCCN)C(=O)N[C@@H](CCCCN)C(=O)O` (Hexanoyl-RGRKGGRRKK-OH), in data set [1], the HC10 was over 10000 µg/mL. Moreover, the minimum inhibitory concentration (MIC) was over 80 µM in the data set on Klebsiella pneumoniae, over 80 µM against Pseudomonas aeruginosa and 20 µM (≈ 25.9 µg/mL) against Escherichia coli.

Regarding `CC(=O)N[C@@H](CCCNC(=N)N)C(=O)NCC(=O)N[C@@H](CCCNC(=N)N)C(=O)N[C@@H](CCCCN)C(=O)NCC(=O)NCC(=O)N[C@@H](CCCNC(=N)N)C(=O)N[C@@H](CCCNC(=N)N)C(=O)N[C@@H](CCCCN)C(=O)N[C@@H](CCCCN)C(=O)O` (Ac-RGRKGGRRKK-OH), the HC10 in data set [1] was over 10000 µg/mL. Besides, the values for the minimal inhibitory concentration (MIC) against Klebsiella pneumoniae, in the data set with Pseudomonas aeruginosa and against Escherichia coli were over 80 µM, over 80 µM and 20 µM (≈ 24.8 µg/mL), respectively.

For the molecule `CCCC(=O)N[C@@H](CCCNC(=N)N)C(=O)NCC(=O)N[C@@H](CCCNC(=N)N)C(=O)N[C@@H](CCCCN)C(=O)N[C@H](C(=O)N[C@H](C(=O)N[C@@H](CCCNC(=N)N)C(=O)N[C@@H](CCCNC(=N)N)C(=O)N[C@@H](CCCCN)C(=O)N[C@@H](CCCCN)C(=O)O)C(C)C)C(C)C` (Butyryl-RGRKVVRRKK-OH), the HC10 in data set [1] is over 10000 µg/mL. Moreover, the MIC is over 80 µM with Klebsiella pneumoniae, over 80 µM in the data set on Pseudomonas aeruginosa and 40 µM (≈ 54.1 µg/mL) in the data set with Escherichia coli.

`CCCCCCCCCCCC(=O)N[C@@H](CCCNC(=N)N)C(=O)NCC(=O)N[C@@H](CCCNC(=N)N)C(=O)N[C@@H](CCCCN)C(=O)N[C@H](C(=O)N[C@H](C(=O)N[C@@H](CCCNC(=N)N)C(=O)N[C@@H](CCCNC(=N)N)C(=O)N[C@@H](CCCCN)C(=O)N[C@@H](CCCCN)C(=O)O)C(C)C)C(C)C` (Lauroyl-RGRKVVRRKK-OH): the HC10 in data set [1] is over 10000 µg/mL. The MIC worked out at 20 µM (≈ 29.3 µg/mL) in the data set with Klebsiella pneumoniae, 10 µM (≈ 14.6 µg/mL) against Pseudomonas aeruginosa and 6 µM (≈ 8.79 µg/mL) with Escherichia coli.

Regarding `CC(C)[C@H](NC(=O)[C@H](CCCCN)NC(=O)[C@H](CCCNC(=N)N)NC(=O)CNC(=O)[C@@H](N)CCCNC(=N)N)C(=O)N[C@H](C(=O)N[C@@H](CCCNC(=N)N)C(=O)N[C@@H](CCCNC(=N)N)C(=O)N[C@@H](CCCCN)C(=O)N[C@@H](CCCCN)C(=O)O)C(C)C` (H-RGRKVVRRKK-OH), in data set [1], the HC10 is over 10000 µg/mL. Besides, the MIC in the data set with Klebsiella pneumoniae is over 80 µM; with Pseudomonas aeruginosa, 80 µM (≈ 103 µg/mL); in the data set with Escherichia coli it was 10 µM (≈ 12.8 µg/mL).
